In patent US20260250318A1, “COMPOSITIONS AND METHODS FOR CROSSING THE BLOOD BRAIN BARRIER” (VOYAGER THERAPEUTICS, INC., priority 2022, published 2026):

test system: brain; test: Maturation of TTM-001 capsid, NGS enrichment in brain of CD-1 Outbred mice; assay type: in vivo; conditions: NGS fold-enrichment of TTM-001 matured AAV capsid variants in the brain of CD-1 Outbred mice; intravenous 1.0×10^12 VG/dose; 14 days in life; RNA; relative to non-matured TTM-001 control
Summary of the method: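 Pooled matured TTM-001 or TTM-002 capsid libraries (loop IV region randomized by triple-codon or low-frequency point mutagenesis) dosed IV via tail vein at 1.0×10^12 VG/dose to three female CD-1 mice. Brain RNA taken after 14 days; RT-PCR and NGS gave fold enrichment versus parent TTM-001 or TTM-002 control.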

Going from KTINGSGSPHSKGVRQQT to KTINGSGSPHSKHLRQQT, the “Fold enrichment over TTM-001” value rises from 2.115 fold to 3.438 fold.

Compared with KTINGSGSPHSKIGRQQT, KTINGSGSPHSKILWQQT is higher in “Fold enrichment over TTM-001” value: 2.739 fold for the first, 2.838 fold for the second.

First: KTINGSGSPHSKIRLQQT
Second: KTINGSGSPHSKIRPQQT
The “Fold enrichment over TTM-001” value of the first is higher: 2.348 fold for the first, 2.080 fold for the second.

First: KTINGSGSPHSKKGGQQT
Second: KTINGSGSPHSKKMSQQT
The “Fold enrichment over TTM-001” value of the first is lower: 2.009 fold for the first, 2.235 fold for the second.

Compared with KTINGSGSPHSKKVSQQT, KTINGSGSPHSKLARQQT is higher in “Fold enrichment over TTM-001” value: 2.088 fold for the first, 3.054 fold for the second.

First: KTINGSGSPHSKLCLQQT
Second: KTINGSGSPHSKLCSQQT
The “Fold enrichment over TTM-001” value of the first is lower: 2.562 fold for the first, 2.989 fold for the second.

First: KTINGSGSPHSKLCVQQT
Second: KTINGSGSPHSKLFRQQT
The “Fold enrichment over TTM-001” value of the first is lower: 2.659 fold for the first, 3.806 fold for the second.

Compared with KTINGSGSPHSKLIRQQT, KTINGSGSPHSKLLRQQT is lower in “Fold enrichment over TTM-001” value: 3.968 fold for the first, 2.981 fold for the second.

Going from KTINGSGSPHSKLMRQQT to KTINGSGSPHSKLNKQQT, the “Fold enrichment over TTM-001” value rises from 2.056 fold to 3.181 fold.

Compared with KTINGSGSPHSKLPRQQT, KTINGSGSPHSKLRLQQT is lower in “Fold enrichment over TTM-001” value: 2.562 fold for the first, 2.065 fold for the second.

Compared with KTINGSGSPHSKLRMQQT, KTINGSGSPHSKLRNQQT is higher in “Fold enrichment over TTM-001” value: 2.106 fold for the first, 3.112 fold for the second.

First: KTINGSGSPHSKLRPQQT
Second: KTINGSGSPHSKLRRQQT
The “Fold enrichment over TTM-001” value of the first is lower: 2.060 fold for the first, 6.231 fold for the second.

Going from KTINGSGSPHSKLRSQQT to KTINGSGSPHSKLSKQQT, the “Fold enrichment over TTM-001” value rises from 2.309 fold to 2.482 fold.

Compared with KTINGSGSPHSKLSRQQT, KTINGSGSPHSKLSWQQT is lower in “Fold enrichment over TTM-001” value: 2.380 fold for the first, 2.322 fold for the second.

Going from KTINGSGSPHSKLVRQQT to KTINGSGSPHSKLWLQQT, the “Fold enrichment over TTM-001” value rises from 2.801 fold to 3.199 fold.

Going from KTINGSGSPHSKLWSQQT to KTINGSGSPHSKLWTQQT, the “Fold enrichment over TTM-001” value falls from 2.190 fold to 2.140 fold.

Compared with KTINGSGSPHSKLYMQQT, KTINGSGSPHSKMRAQQT is higher in “Fold enrichment over TTM-001” value: 2.015 fold for the first, 3.382 fold for the second.

Compared with KTINGSGSPHSKMRPQQT, KTINGSGSPHSKNLRQQT is lower in “Fold enrichment over TTM-001” value: 2.652 fold for the first, 2.022 fold for the second.

First: KTINGSGSPHSKNTRQQT
Second: KTINGSGSPHSKNVRQQT
The “Fold enrichment over TTM-001” value of the first is lower: 2.047 fold for the first, 2.123 fold for the second.

First: KTINGSGSPHSKPARQQT
Second: KTINGSGSPHSKPLRQQT
The “Fold enrichment over TTM-001” value of the first is lower: 2.538 fold for the first, 2.844 fold for the second.

Compared with KTINGSGSPHSKPRGQQT, KTINGSGSPHSKPRLQQT is higher in “Fold enrichment over TTM-001” value: 2.147 fold for the first, 3.337 fold for the second.

First: KTINGSGSPHSKPRPQQT
Second: KTINGSGSPHSKPRSQQT
The “Fold enrichment over TTM-001” value of the first is higher: 2.352 fold for the first, 2.235 fold for the second.

Compared with KTINGSGSPHSKPRVQQT, KTINGSGSPHSKPSRQQT is lower in “Fold enrichment over TTM-001” value: 2.441 fold for the first, 2.438 fold for the second.

Going from KTINGSGSPHSKPTRQQT to KTINGSGSPHSKPVRQQT, the “Fold enrichment over TTM-001” value falls from 3.201 fold to 2.529 fold.

Compared with KTINGSGSPHSKPWLQQT, KTINGSGSPHSKQRSQQT is higher in “Fold enrichment over TTM-001” value: 2.138 fold for the first, 2.395 fold for the second.

Going from KTINGSGSPHSKQRVQQT to KTINGSGSPHSKQSRQQT, the “Fold enrichment over TTM-001” value rises from 2.117 fold to 2.156 fold.

Compared with KTINGSGSPHSKQTRQQT, KTINGSGSPHSKRAAQQT is higher in “Fold enrichment over TTM-001” value: 2.650 fold for the first, 3.838 fold for the second.

Going from KTINGSGSPHSKRALQQT to KTINGSGSPHSKRAMQQT, the “Fold enrichment over TTM-001” value rises from 2.114 fold to 3.801 fold.

Compared with KTINGSGSPHSKRASQQT, KTINGSGSPHSKRATQQT is higher in “Fold enrichment over TTM-001” value: 2.173 fold for the first, 2.283 fold for the second.

Going from KTINGSGSPHSKRFLQQT to KTINGSGSPHSKRGLQQT, the “Fold enrichment over TTM-001” value falls from 3.359 fold to 2.402 fold.

Compared with KTINGSGSPHSKRGTQQT, KTINGSGSPHSKRILQQT is higher in “Fold enrichment over TTM-001” value: 2.022 fold for the first, 2.801 fold for the second.

Going from KTINGSGSPHSKRINQQT to KTINGSGSPHSKRIVQQT (KTINGSGSPHSKRLVQQT), the “Fold enrichment over TTM-001” value falls from 2.173 fold to 2.151 fold.

First: KTINGSGSPHSKRLAQQT
Second: KTINGSGSPHSKRLLQQT
The “Fold enrichment over TTM-001” value of the first is lower: 2.397 fold for the first, 2.659 fold for the second.

Compared with KTINGSGSPHSKRLMQQT, KTINGSGSPHSKRLPQQT is lower in “Fold enrichment over TTM-001” value: 2.345 fold for the first, 2.279 fold for the second.

Going from KTINGSGSPHSKRLRQQT to KTINGSGSPHSKRLTQQT, the “Fold enrichment over TTM-001” value falls from 5.034 fold to 2.363 fold.

Going from KTINGSGSPHSKRLYQQT to KTINGSGSPHSKRMSQQT, the “Fold enrichment over TTM-001” value rises from 2.721 fold to 2.931 fold.

First: KTINGSGSPHSKRNGQQT
Second: KTINGSGSPHSKRNLQQT
The “Fold enrichment over TTM-001” value of the first is higher: 3.350 fold for the first, 3.210 fold for the second.

Going from KTINGSGSPHSKRNVQQT to KTINGSGSPHSKRPFQQT, the “Fold enrichment over TTM-001” value falls from 2.404 fold to 2.076 fold.

Going from KTINGSGSPHSKRRLQQT to KTINGSGSPHSKRRNQQT, the “Fold enrichment over TTM-001” value falls from 4.451 fold to 2.877 fold.

Going from KTINGSGSPHSKRSFQQT to KTINGSGSPHSKRSIQQT, the “Fold enrichment over TTM-001” value falls from 2.197 fold to 2.063 fold.

Going from KTINGSGSPHSKRSLQQT to KTINGSGSPHSKRSMQQT, the “Fold enrichment over TTM-001” value rises from 2.270 fold to 3.561 fold.

Going from KTINGSGSPHSKRSNQQT to KTINGSGSPHSKRSWQQT, the “Fold enrichment over TTM-001” value rises from 2.886 fold to 3.838 fold.

First: KTINGSGSPHSKRTAQQT
Second: KTINGSGSPHSKRTFQQT
The “Fold enrichment over TTM-001” value of the first is lower: 2.331 fold for the first, 3.879 fold for the second.

Going from KTINGSGSPHSKRTLQQT to KTINGSGSPHSKRTPQQT, the “Fold enrichment over TTM-001” value rises from 2.583 fold to 3.169 fold.

Compared with KTINGSGSPHSKRTSQQT, KTINGSGSPHSKRTYQQT is higher in “Fold enrichment over TTM-001” value: 2.857 fold for the first, 2.870 fold for the second.

First: KTINGSGSPHSKRVGQQT
Second: KTINGSGSPHSKRVLQQT
The “Fold enrichment over TTM-001” value of the first is higher: 2.190 fold for the first, 2.035 fold for the second.

First: KTINGSGSPHSKRVPQQT
Second: KTINGSGSPHSKRVSQQT
The “Fold enrichment over TTM-001” value of the first is higher: 3.048 fold for the first, 2.196 fold for the second.

First: KTINGSGSPHSKSARQQT
Second: KTINGSGSPHSKSCAQQT
The “Fold enrichment over TTM-001” value of the first is lower: 2.067 fold for the first, 2.348 fold for the second.

Compared with KTINGSGSPHSKSERQQT, KTINGSGSPHSKSFRQQT is higher in “Fold enrichment over TTM-001” value: 2.263 fold for the first, 3.426 fold for the second.

First: KTINGSGSPHSKSHRQQT
Second: KTINGSGSPHSKSIRQQT
The “Fold enrichment over TTM-001” value of the first is lower: 2.145 fold for the first, 2.728 fold for the second.

First: KTINGSGSPHSKSLKQQT
Second: KTINGSGSPHSKSNKQQT
The “Fold enrichment over TTM-001” value of the first is higher: 2.013 fold for the first, 2.006 fold for the second.

Compared with KTINGSGSPHSKSRHQQT, KTINGSGSPHSKSRRQQT is higher in “Fold enrichment over TTM-001” value: 2.685 fold for the first, 4.175 fold for the second.

Going from KTINGSGSPHSKSRWQQT to KTINGSGSPHSKSVRQQT, the “Fold enrichment over TTM-001” value falls from 3.698 fold to 2.259 fold.

First: KTINGSGSPHSKTCLQQT
Second: KTINGSGSPHSKTCSQQT
The “Fold enrichment over TTM-001” value of the first is higher: 3.717 fold for the first, 2.430 fold for the second.

Compared with KTINGSGSPHSKTGRQQT, KTINGSGSPHSKTIRQQT is higher in “Fold enrichment over TTM-001” value: 2.259 fold for the first, 2.453 fold for the second.

Compared with KTINGSGSPHSKTLRQQT, KTINGSGSPHSKTNRQQT is lower in “Fold enrichment over TTM-001” value: 3.788 fold for the first, 2.169 fold for the second.

Compared with KTINGSGSPHSKTRAQQT, KTINGSGSPHSKTRLQQT is lower in “Fold enrichment over TTM-001” value: 2.223 fold for the first, 2.145 fold for the second.

First: KTINGSGSPHSKTRMQQT
Second: KTINGSGSPHSKTSRQQT
The “Fold enrichment over TTM-001” value of the first is lower: 2.011 fold for the first, 2.132 fold for the second.

Compared with KTINGSGSPHSKVARQQT, KTINGSGSPHSKVGRQQT is higher in “Fold enrichment over TTM-001” value: 2.136 fold for the first, 3.255 fold for the second.

Going from KTINGSGSPHSKVIRQQT to KTINGSGSPHSKVKPQQT, the “Fold enrichment over TTM-001” value rises from 2.760 fold to 2.778 fold.

Going from KTINGSGSPHSKVPKQQT to KTINGSGSPHSKVRAQQT, the “Fold enrichment over TTM-001” value falls from 2.924 fold to 2.412 fold.

Going from KTINGSGSPHSKVRVQQT to KTINGSGSPHSKVSRQQT, the “Fold enrichment over TTM-001” value rises from 2.034 fold to 2.108 fold.

First: KTINGSGSPHSKVTRQQT
Second: KTINGSGSPHSKWLLQQT
The “Fold enrichment over TTM-001” value of the first is lower: 2.397 fold for the first, 4.521 fold for the second.

Compared with KTINGSGSPHSKWLVQQT, KTINGSGSPHSKWPGQQT is higher in “Fold enrichment over TTM-001” value: 2.333 fold for the first, 2.477 fold for the second.

Compared with KTINGSGSPHSKWSLQQT, KTINGSGSPHSKWTLQQT is lower in “Fold enrichment over TTM-001” value: 2.453 fold for the first, 2.039 fold for the second.

First: KTINGSGSPHSKWVSQQT
Second: KTINGSGSPHSKYPSQQT
The “Fold enrichment over TTM-001” value of the first is lower: 2.089 fold for the first, 3.114 fold for the second.

First: KTINGSGSPHSLCQNQQT
Second: KTINGSGSPHSLCSNQQT
The “Fold enrichment over TTM-001” value of the first is lower: 2.285 fold for the first, 3.413 fold for the second.

First: KTINGSGSPHSLFANQQT
Second: KTINGSGSPHSLFLNQQT
The “Fold enrichment over TTM-001” value of the first is lower: 2.365 fold for the first, 3.358 fold for the second.

Going from KTINGSGSPHSLFPNQQT to KTINGSGSPHSLFRNQQT, the “Fold enrichment over TTM-001” value rises from 2.106 fold to 4.037 fold.

Going from KTINGSGSPHSLLCNQQT to KTINGSGSPHSLLWNQQT, the “Fold enrichment over TTM-001” value rises from 3.644 fold to 7.983 fold.

In the case of KTINGSGSPHSLLYNQQT, the “Fold enrichment over TTM-001” value is reported as 2.158 fold.
